The values that follow come from BindingDB's records for patent US20240092770 (Recursion Pharmaceuticals, 2024).

The target of the assay is T1, RNA-binding protein 39 [150-331]/DDB1- and CUL4-associated factor 15 (Homo sapiens, UniProt Q14498+Q66K64).
T1 construct: 150-331
The assay can be described thus: TR-FRET Assay. As for the experimental part:
A TR-FRET assay was used to assess the effect of compounds disclosed herein on the interaction between RBM39 and the DCAF15 complex. Test compounds were dissolved to form a 10 mM DMSO stock solution. A 45 μL aliquot of the stock solution was transferred to a 384 pp-plate, and a threefold, 8-point dilution was performed via transferring 15 μL compound solution into 30 μL of DMSO. The plates were then spun at room temperature at 1,000 RPM for 1 minute. A 30 nL aliquot of the diluted compound was transferred to a 384 well plate, which was incubated at room temperature for 15 minutes. Next, Solutions 1, 2, and 3 were prepared as described in the below tables. A 5 μL aliquot of Solution 2 was added to each well, followed by 5 μL of Solution 3 to start the reaction. The final volume of each well was 10 μL. The plates were incubated at room temperature for 60 minutes, and then read.
(In general: In TR-FRET formats the signal depends on donor and acceptor labels being close together.)

T1 sequence (Q66K64 whole entry): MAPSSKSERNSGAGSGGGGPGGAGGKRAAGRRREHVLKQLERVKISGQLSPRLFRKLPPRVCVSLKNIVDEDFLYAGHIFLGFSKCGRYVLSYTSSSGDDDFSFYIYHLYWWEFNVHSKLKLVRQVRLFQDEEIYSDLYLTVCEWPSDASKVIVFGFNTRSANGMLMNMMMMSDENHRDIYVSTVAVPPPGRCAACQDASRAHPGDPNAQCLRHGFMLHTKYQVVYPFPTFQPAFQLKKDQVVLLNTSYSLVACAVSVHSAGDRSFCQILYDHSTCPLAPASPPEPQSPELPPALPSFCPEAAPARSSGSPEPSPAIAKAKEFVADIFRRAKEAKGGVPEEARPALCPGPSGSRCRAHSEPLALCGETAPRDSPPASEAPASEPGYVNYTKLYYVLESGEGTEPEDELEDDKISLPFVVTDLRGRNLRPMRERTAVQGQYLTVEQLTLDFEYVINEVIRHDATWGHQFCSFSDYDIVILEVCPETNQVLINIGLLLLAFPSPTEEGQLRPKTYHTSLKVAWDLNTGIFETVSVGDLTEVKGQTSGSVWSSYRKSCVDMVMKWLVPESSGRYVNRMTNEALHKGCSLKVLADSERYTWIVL
T1 sequence (Q14498 150-331): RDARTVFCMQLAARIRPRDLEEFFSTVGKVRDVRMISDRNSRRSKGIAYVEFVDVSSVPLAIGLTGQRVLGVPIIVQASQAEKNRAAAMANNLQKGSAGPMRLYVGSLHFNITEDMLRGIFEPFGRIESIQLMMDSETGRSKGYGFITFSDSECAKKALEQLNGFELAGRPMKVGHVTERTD

In general, EC50 refers to the concentration at which the effect is half-maximal. The low end stands for an effect from little substance, the high end for a need for much substance. As to `Cc1ccc(NS(=O)(=O)c2ncc(C(F)(F)F)s2)c2[nH]cc(C#N)c12` [US20240092770, Compound 25], the EC50 came to 1090 nM.
